In ChEMBL document CHEMBL1201862, “PubChem BioAssay data set” (2004):
Active and inactive are the calls of the source.

Columns and labels:
[1] = target: Induced myeloid leukemia cell differentiation protein Mcl-1 (Homo sapiens, UniProt Q07820); format: functional
[2] = target: T1, Rac GTPase-activating protein 1 (Homo sapiens, UniProt Q9H0H5); assay: blockers of MgcRacGAP-driven Rac1 GTP hydrolysis – biochemical, ADP Hunter fluorescence, primary and confirmatory, confirmation (AID 624330); format: functional
T1 sequence (Q9H0H5 whole entry): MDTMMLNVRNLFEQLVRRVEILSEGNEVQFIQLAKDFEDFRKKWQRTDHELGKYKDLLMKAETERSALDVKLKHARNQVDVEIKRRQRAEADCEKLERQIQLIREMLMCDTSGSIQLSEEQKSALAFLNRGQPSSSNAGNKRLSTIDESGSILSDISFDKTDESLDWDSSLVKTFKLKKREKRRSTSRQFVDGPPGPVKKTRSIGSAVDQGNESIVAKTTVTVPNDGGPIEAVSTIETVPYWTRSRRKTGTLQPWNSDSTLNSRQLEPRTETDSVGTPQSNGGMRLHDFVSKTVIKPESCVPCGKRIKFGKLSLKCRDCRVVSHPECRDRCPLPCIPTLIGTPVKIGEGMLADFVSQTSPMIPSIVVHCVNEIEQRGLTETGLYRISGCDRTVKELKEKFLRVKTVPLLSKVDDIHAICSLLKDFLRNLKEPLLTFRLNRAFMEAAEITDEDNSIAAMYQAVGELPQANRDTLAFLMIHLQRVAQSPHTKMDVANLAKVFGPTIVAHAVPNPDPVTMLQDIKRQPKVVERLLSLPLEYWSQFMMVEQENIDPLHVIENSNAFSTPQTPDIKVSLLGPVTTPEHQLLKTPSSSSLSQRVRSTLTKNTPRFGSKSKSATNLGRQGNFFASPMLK

[3] = target: Peroxisome proliferator-activated receptor gamma/Nuclear receptor coactivator 1 (Homo sapiens, UniProt P37231); format: functional;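 further: agonist potency as compounds enhance coactivator SRC-1 recruitment to PPARgamma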
Peroxisome proliferator-activated receptor gamma/Nuclear receptor coactivator 1, sequence (P37231 whole entry): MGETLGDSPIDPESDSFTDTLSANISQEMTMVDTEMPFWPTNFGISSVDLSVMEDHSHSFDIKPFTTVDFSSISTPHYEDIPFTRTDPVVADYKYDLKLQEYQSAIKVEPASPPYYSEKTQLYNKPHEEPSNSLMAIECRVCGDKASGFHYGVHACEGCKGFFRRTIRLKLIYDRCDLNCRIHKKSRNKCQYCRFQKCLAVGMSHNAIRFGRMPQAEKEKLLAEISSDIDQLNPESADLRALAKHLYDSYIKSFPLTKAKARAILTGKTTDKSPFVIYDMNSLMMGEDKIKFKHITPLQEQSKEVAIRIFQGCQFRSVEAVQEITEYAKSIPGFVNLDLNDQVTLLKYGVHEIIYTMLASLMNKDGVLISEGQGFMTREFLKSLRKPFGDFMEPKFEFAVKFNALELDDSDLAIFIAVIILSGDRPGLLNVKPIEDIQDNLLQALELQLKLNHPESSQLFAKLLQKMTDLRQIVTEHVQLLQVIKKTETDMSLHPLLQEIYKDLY
Peroxisome proliferator-activated receptor gamma/Nuclear receptor coactivator 1, sequence (Q15788 whole entry, further chain): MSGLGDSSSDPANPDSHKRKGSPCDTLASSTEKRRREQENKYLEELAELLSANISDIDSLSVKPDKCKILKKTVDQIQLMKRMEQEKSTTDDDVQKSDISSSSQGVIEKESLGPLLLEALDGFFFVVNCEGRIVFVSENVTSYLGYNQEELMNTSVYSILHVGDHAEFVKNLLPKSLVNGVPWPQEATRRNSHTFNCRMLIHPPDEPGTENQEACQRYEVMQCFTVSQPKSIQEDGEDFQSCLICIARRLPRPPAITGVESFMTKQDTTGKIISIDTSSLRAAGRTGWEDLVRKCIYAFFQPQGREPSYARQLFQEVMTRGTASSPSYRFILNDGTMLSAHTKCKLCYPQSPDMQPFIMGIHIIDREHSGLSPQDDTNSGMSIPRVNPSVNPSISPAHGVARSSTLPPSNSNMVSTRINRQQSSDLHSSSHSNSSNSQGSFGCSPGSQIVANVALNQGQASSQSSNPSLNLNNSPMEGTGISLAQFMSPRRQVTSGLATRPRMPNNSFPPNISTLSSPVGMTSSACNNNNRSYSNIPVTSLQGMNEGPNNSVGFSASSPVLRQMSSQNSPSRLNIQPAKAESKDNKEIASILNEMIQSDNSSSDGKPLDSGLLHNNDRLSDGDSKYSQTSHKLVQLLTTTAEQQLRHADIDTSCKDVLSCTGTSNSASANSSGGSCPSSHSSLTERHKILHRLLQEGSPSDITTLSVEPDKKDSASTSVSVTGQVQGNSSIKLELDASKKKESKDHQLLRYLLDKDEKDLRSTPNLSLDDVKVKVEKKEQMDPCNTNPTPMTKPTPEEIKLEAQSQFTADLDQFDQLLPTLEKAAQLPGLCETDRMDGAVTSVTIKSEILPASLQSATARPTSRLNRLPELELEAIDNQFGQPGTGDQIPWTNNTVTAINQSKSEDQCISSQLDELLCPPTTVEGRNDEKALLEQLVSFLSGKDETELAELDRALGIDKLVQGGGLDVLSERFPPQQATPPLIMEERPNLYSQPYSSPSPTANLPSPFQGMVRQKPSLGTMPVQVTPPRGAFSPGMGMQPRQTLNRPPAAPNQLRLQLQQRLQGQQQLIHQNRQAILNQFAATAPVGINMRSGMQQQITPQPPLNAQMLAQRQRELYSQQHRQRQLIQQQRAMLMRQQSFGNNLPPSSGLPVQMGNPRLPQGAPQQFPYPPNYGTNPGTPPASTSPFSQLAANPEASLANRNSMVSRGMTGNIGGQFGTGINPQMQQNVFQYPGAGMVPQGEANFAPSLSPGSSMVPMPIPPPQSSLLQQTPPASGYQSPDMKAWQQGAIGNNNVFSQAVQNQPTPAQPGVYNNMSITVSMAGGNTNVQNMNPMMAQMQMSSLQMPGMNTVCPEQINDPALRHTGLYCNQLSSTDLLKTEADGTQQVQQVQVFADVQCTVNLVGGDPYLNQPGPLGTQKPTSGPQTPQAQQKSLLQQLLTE

[4] = blockers of bursicon-stimulated LGR2 cAMP reporter – cell-based, HEK293, CRE-luciferase reporter, cherry pick, set 2, dose response (AID 743343); format: functional;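 further: transfected cells were stimulated with diluted bursicon conditioned medium after compound addition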
[5] = target: T2, Nuclear receptor subfamily 0 group B member 1 (Homo sapiens, UniProt P51843); format: functional, cell-based;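 further: HEK293T cells transfected with SF-1 and DAX-1 plus StAR promoter luciferase reporter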
T2 sequence (P51843 whole entry): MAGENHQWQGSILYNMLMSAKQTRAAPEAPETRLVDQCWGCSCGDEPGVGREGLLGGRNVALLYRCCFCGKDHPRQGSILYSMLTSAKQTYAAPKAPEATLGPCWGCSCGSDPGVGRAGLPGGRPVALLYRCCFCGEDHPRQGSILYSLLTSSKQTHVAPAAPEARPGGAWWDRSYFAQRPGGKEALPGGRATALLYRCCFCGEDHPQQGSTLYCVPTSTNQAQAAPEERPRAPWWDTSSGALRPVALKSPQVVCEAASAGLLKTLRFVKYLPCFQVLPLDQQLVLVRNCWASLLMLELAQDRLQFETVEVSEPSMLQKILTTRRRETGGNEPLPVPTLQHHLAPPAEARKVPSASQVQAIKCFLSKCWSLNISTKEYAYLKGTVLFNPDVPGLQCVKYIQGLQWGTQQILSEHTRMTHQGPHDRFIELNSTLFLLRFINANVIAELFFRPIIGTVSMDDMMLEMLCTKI

[6] = target: T3, Histone-lysine N-methyltransferase NSD2 (Homo sapiens, UniProt O96028); format: biochemical
T3 sequence (O96028 whole entry): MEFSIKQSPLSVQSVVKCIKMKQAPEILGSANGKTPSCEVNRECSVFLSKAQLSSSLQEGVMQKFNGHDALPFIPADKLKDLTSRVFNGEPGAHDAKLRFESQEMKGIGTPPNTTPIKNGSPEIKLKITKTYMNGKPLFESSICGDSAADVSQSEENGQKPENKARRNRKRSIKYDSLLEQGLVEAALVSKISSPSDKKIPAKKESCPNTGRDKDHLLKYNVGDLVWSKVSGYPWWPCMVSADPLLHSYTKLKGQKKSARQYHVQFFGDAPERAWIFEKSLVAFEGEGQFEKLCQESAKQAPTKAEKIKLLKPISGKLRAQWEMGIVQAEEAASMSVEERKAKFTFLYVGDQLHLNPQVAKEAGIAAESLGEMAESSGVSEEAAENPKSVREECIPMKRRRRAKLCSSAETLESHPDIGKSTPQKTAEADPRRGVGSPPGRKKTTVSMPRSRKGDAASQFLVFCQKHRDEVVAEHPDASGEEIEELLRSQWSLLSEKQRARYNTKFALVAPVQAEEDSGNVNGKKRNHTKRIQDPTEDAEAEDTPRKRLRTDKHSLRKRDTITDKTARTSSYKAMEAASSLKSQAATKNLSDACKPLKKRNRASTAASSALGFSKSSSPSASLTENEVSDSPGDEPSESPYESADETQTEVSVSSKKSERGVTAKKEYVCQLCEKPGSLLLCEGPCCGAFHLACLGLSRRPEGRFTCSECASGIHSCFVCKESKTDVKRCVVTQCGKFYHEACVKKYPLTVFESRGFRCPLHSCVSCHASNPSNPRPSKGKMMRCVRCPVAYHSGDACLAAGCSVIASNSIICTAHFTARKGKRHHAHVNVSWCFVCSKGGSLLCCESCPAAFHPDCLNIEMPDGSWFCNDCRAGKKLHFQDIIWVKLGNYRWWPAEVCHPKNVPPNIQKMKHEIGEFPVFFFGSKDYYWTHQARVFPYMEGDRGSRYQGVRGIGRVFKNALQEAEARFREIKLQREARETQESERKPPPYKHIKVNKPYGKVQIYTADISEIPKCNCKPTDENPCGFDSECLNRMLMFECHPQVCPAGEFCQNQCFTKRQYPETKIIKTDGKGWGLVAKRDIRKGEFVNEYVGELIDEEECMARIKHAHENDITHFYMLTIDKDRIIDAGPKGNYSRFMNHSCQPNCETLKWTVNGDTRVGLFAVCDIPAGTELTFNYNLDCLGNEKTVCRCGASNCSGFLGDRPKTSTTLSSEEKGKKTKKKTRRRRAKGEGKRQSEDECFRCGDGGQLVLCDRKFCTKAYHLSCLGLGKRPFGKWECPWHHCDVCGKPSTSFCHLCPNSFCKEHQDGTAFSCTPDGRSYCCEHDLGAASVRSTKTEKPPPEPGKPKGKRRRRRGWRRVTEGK

[7] = target: Homeodomain-interacting protein kinase 4 (Homo sapiens, UniProt Q8NE63); format: functional
[8] = target: STE20-like serine/threonine-protein kinase (Homo sapiens, UniProt Q9H2G2); format: functional
STE20-like serine/threonine-protein kinase, sequence (Q9H2G2 whole entry): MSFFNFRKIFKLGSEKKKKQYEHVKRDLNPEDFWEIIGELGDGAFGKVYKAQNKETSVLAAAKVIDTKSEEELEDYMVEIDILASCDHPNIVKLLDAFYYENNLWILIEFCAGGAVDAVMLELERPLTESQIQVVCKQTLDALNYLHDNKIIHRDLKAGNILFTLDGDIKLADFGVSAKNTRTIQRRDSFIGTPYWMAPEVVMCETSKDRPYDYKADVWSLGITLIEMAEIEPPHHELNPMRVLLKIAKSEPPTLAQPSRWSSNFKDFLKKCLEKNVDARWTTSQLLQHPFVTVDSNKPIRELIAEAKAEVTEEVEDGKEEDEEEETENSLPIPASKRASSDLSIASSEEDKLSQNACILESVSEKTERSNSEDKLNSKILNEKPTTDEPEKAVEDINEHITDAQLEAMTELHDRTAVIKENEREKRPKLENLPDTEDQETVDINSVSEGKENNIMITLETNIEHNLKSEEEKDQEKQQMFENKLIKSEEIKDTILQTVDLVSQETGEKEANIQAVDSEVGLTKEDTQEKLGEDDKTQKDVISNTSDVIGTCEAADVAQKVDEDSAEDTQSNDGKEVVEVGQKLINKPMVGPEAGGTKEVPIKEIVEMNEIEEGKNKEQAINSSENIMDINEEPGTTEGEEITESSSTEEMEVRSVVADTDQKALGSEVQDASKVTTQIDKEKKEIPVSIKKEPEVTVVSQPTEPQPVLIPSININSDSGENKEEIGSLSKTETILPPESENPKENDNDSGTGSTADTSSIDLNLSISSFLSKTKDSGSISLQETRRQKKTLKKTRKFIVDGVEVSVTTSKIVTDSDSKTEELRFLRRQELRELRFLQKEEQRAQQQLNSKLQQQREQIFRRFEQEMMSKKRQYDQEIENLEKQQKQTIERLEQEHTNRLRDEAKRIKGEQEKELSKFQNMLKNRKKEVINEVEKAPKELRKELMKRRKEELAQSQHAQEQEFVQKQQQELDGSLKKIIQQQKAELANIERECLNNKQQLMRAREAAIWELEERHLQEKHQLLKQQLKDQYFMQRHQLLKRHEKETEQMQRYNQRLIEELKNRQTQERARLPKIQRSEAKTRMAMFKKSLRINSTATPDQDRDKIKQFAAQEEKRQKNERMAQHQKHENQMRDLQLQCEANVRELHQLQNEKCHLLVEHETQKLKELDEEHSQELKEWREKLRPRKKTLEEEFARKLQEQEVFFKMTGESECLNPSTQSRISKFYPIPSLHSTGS

[9] = target: BDNF/NT-3 growth factors receptor (Homo sapiens, UniProt Q16620); format: functional;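 further: NTRK2 measured as one member of a broad kinome-wide kinase profiling panel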
BDNF/NT-3 growth factors receptor, sequence (Q16620 whole entry): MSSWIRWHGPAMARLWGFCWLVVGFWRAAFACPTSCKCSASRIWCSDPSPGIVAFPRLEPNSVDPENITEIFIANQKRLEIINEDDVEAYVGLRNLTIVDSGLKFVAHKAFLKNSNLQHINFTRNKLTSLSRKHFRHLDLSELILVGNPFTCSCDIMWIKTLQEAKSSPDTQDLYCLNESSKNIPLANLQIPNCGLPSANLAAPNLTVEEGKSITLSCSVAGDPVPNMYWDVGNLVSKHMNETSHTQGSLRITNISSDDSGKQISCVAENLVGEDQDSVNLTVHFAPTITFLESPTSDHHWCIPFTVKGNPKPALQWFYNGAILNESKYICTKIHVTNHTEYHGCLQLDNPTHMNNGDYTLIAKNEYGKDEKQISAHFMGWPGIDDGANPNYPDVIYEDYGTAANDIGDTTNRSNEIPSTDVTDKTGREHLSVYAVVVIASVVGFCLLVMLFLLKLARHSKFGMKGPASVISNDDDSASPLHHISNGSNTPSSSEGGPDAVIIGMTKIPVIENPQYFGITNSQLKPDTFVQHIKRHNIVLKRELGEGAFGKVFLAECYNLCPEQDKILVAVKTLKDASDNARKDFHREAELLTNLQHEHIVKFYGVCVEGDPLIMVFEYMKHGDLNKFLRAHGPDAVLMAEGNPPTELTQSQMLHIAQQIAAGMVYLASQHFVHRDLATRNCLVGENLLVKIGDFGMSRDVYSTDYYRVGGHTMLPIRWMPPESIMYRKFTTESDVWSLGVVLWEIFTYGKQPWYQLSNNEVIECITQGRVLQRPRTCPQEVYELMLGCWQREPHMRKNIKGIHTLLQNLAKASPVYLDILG

[10] = target: Death-associated protein kinase 3 (Homo sapiens, UniProt O43293); format: functional;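 further: measured as one member of a kinome-wide profiling panel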
Death-associated protein kinase 3, sequence (O43293 whole entry): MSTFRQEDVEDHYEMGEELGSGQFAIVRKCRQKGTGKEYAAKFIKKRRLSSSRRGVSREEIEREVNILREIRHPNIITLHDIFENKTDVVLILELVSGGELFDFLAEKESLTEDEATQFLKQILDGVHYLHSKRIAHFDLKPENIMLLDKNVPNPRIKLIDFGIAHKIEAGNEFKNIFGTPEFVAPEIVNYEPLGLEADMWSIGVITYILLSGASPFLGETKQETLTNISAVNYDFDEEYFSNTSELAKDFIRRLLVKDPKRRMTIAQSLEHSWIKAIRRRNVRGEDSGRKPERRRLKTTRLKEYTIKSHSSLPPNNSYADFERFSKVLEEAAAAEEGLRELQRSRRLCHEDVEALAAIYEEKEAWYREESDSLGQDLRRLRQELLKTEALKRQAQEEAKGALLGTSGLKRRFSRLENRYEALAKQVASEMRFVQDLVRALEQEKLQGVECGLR

Induced myeloid leukemia cell differentiation protein Mcl-1, sequence (Q07820 whole entry): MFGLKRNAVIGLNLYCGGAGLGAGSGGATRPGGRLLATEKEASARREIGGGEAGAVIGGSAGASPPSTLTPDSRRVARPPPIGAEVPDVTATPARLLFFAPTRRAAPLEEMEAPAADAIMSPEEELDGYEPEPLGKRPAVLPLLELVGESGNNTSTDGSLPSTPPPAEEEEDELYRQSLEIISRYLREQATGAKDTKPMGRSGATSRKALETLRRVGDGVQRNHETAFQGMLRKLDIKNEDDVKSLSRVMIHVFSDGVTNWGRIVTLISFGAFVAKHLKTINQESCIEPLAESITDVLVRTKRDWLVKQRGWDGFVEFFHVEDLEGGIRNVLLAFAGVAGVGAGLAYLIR

With `CN(C)c1ncc(C2=C(Cl)C(=O)C(N3CCCC3)=C(Cl)C2=O)s1` the IC50 [1] was 26.4 µM (active), the IC50 [2] was 89.5 µM (active) and the EC50 [3] was > 79.4 µM (not active).

For `Cc1cnc(NC(=O)c2sc3ccccc3c2Cl)s1`, the AC50 [4] was 3.07 µM (active) and the IC50 [5] was > 67.5 µM (inactive).

With `O=C1C(O)=C/C(=N\c2ccccc2O)c2ccccc21` the AC50 [6] was 2.39 µM (active).

With `O=C1NC(=S)SC1=C1C(=O)Nc2ccc(Br)cc21` the Ki [7] was 0.631 µM (active), the Ki [8] was 1.26 µM (active) and the Ki [9] was > 5.01 µM (inactive). The Ki [10] was 0.2 µM (active).
